Reference: patent US12343326B2, “Psychoactive medicines and their use for treating psychiatric and neurological conditions and disorders” (Transcend Therapeutics, Inc., priority 2021, dated 2025)

Experiments:
healthy adult subjects = assay: Methylone case series, Cohort 1: safety and tolerability of a single dosing session; type: in vivo, human; settings: Cohort 1, 4 healthy subjects, total oral dose 790 or 870 mg in one session
Male Sprague Dawley rats = assay: Forced Swim Test (FST); type: in vivo, rat
Text: The Forced Swim Test (FST) is a classic, and the most used preclinical behavioral assay to screen compounds with antidepressant-like activity and has high predictive and face validity (Porsolt et al. (1977) Nature 266:730; Borsini and Meli (1988) Psychopharmacology 94:147). The premise of the FST is that when rats are placed into a cylinder filled with water, they will initially try to escape, but over time will become immobile. This increased immobility reflects behavioral despair, modeling a depressive-like state.
Forced Swim Test (FST): In the FST trial, rats were placed in a circular plexiglass container filled with water, with no means of escape. Water temperature was maintained at 22-25° C. and changed for every animal. After an acclimation period, rats were timed for inactivity (failure to struggle), activity, swim time and climbing time. Day 1 consisted of a 15 min acclimation trial, and Day 2 (24 h later) consisted of the 5 min test. A time sampling procedure was employed where animals were observed every 5 sec and scored for immobility, swimming, or climbing. Fluoxetine (10 mg/kg, IP, Sigma Aldrich) or 0.9% sterile saline vehicle (vehicle 3× group) were administered 23.5, 5, and 1 h before testing in the FST. […] The experimenter was blinded to treatment.
Forced Swim Test: In the FST trial, rats were placed in a circular plexiglass container filled with water, with no means of escape. Water temperature was maintained at 22-25° C. and changed for every animal. After an acclimation period, rats were timed for inactivity (failure to struggle), activity, swim time and climbing time. Day 1 consisted of a 15 min acclimation trial, and Day 2 (24 h later) consisted of the 5 min test. A time sampling procedure was employed where animals were observed every 5 sec and scored for immobility, swimming, or climbing. Fluoxetine (10 mg/kg, IP, Sigma Aldrich) or 0.9% sterile saline vehicle (vehicle 3× group) were administered 23.5, 5, and 1 h before testing in the FST. 2C-B (2.5, 10, or 20 mg/kg, IP, Cayman Chemical) or 0.9% saline vehicle (vehicle 1× group) were administered 30 min prior to FST testing. The experimenter was blinded to treatment.
Drug Treatment: Fluoxetine (10 mg/kg, IP, Sigma Aldrich) or 0.9% sterile saline vehicle were administered 23.5, 5, and 1 h before testing in the FST. […] Control animals received fluoxetine alone, methylone alone, or saline vehicle.
Forced Swim Test: In the FST trial, rats were placed in a circular plexiglass container filled with water, with no means of escape. Water temperature was maintained at 22-25° C. and changed for every animal. After an acclimation period, rats were timed for inactivity (failure to struggle), activity, swim time and climbing time. The experimenter and scorer were blind to treatment group. Day 1 consisted of a 15 min acclimation trial, and Day 2 (24 h later) consisted of the 5 min test. A time sampling procedure was employed where animals were observed every 5 sec and scored for immobility, swimming, or climbing.
Control animals received saline vehicle. The dosing schedule and experimental design are found in FIG. 12A.
The FST was performed and scored by an experimenter blind to treatment group according to standard protocols and based on a “modified FST” procedure (Slattery and Cryan (2012) Nat Protoc, 7:1009). Briefly, rats were placed in a circular plexiglass container (29.2 cm diameter, 49.5 cm height) filled with water to a depth of 30 cm so rats could not support themselves by touching the bottom of the tank. Water was maintained at 22-25° C. and was changed for every animal. Day 1 (Training) consisted of a 15 min acclimation trial, and Day 2 (Testing, 24 h later) consisted of the 5 min test. […]

5HT2A receptor = biological target: T1, 5HT2A receptor (Homo sapiens, UniProt P28223); assay: GPCRmax screen, agonist mode; type: cell-based
T1 construct: beta-galactosidase enzyme fragment (PathHunter complementation tag); host or cells: PathHunter cell lines

[1] = biological target: serotonin transporter (SERT) (Rattus norvegicus, UniProt P31652); assay: [3H]5HT uptake saturation in rat brain synaptosomes with or without methylone; type: biochemical; settings: two concentrations of methylone
[2] = test system: gene expression in amygdala, frontal cortex, hippocampus; assay: RNA-sequencing of brain areas after a single dose; type: in vivo, rat; settings: 10 mg/kg IP each

T1 sequence (P28223 whole entry, the tested form may be a part): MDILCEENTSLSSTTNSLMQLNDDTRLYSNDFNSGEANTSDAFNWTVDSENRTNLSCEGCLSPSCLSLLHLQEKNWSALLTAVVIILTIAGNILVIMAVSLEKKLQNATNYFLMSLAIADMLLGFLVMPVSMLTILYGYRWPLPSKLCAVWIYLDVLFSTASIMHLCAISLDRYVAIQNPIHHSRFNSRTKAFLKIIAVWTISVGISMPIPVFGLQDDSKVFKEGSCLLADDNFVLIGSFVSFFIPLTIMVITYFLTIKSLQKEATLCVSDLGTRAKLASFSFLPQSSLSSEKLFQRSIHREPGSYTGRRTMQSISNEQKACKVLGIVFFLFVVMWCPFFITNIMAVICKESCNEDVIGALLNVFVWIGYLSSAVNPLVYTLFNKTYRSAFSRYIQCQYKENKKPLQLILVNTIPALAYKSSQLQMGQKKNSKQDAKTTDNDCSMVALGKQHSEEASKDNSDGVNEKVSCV
serotonin transporter (SERT), sequence (P31652 whole entry): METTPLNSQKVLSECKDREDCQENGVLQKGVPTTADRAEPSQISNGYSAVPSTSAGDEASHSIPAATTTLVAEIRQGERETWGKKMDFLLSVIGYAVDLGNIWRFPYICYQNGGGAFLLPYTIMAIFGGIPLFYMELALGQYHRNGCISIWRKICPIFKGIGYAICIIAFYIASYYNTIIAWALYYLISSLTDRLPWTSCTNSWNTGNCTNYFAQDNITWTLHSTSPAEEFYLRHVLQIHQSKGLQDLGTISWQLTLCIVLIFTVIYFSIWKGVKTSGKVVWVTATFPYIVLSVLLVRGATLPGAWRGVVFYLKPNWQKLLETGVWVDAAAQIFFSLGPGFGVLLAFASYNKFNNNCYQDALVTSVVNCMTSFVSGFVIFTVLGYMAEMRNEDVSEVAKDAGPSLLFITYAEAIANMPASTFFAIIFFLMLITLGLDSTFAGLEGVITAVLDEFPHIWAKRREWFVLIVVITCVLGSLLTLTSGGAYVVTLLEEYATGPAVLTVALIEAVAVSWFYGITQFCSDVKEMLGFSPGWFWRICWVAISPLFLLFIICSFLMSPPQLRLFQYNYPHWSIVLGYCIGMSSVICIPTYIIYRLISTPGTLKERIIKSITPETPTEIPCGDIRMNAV

**Q.** For `CNC(C)C(=O)c1ccc2c(c1)OCO2` (stereo not drawn) [methylone, 3,4-methylenedioxy-N-methylcathinone], which “adverse effects or after-effects” value (healthy adult subjects) is on record?
**A.** no adverse effects or after-effects were observed or reported

**Q.** And the “climbing behavior (FST)” value (Male Sprague Dawley rats; Example 8)?
**A.** significantly increased climbing behavior

**Q.** And the “effectiveness in the FST” value (Male Sprague Dawley rats; doses of 10 mg/kg or more)?
**A.** maximally effective

**Q.** And the “antidepressant-like effect (FST), multiple lower doses” value (Male Sprague Dawley rats; four […] IP doses 20.5, 8.5, 4.5 and 0.5 hours before testing)?
**A.** significant antidepressant-like effects

**Q.** And the “climbing (FST)” value (Male Sprague Dawley rats; methylone IP dose range, 30 min before testing)?
**A.** only increased at the lowest dose

**Q.** What about the “swimming (FST)” value (Male Sprague Dawley rats; mid and high doses of methylone IP, 30 min before testing) of the same molecule?
**A.** significantly increased swimming

**Q.** What about the “antidepressant-like effect (FST) vs. vehicle” value (Male Sprague Dawley rats; single dose 15 mg/kg PO, 2 hours before testing) of the same molecule?
**A.** significant antidepressant-like effect

**Q.** What about the “immobility (FST) vs. saline vehicle” value (Male Sprague Dawley rats; single dose 5, 10, 15, 20 and 30 mg/kg IP, 30 min before testing) of the same molecule?
**A.** significantly reduced immobility

**Q.** What about the agonist % activity (5HT2A receptor; 1 or 10 mM, threshold 30%) of the same molecule?
**A.** no agonist or antagonist activity

**Q.** What about the activity at 10 µM (5HT2A receptor; HTR2A, Agonist mode, 10 uM) of the same molecule?
**A.** 1.4%

**Q.** And the activity at 1 µM (5HT2A receptor; HTR2A, Agonist, 1 uM)?
**A.** -0.1%

**Q.** And the “type of interaction at the SERT” value ([1]; [3H]5HT saturation curves)?
**A.** competitive

**Q.** And the “effect on Bmax of [3H]5HT uptake” value [1]?
**A.** no decrease in Bmax

**Q.** And the “effect on Kd of [3H]5HT uptake” value [1]?
**A.** right shifted

**Q.** And the “genes regulated by methylone that are also regulated by MDMA, amygdala” value [2]?
**A.** 87%
